From publication PMC10914731, “Homo-BacPROTAC-induced degradation of ClpC1 as a strategy against drug-resistant mycobacteria” (Nature Communications, 2024)
Where “and” joins values, the source holds several entries; their conditions need not be identical. Identical values can stand only once. Like-named read-outs stand apart in the source and are kept apart here.

What was measured:
Mtb H37Rv = assay: Minimum bactericidal concentration (MBC), Mtb H37Rv; assay type: cell-based, Mycobacterium tuberculosis; details: for MBC: Mycobacterium tuberculosis, H37RV
[1] = molecular target: ClpC1-NTD substrate, M. tuberculosis ClpC1P1P2 (Mycobacterium tuberculosis, UniProt P9WPC9); assay: biochemical; assay type: biochemical; details: Mtb; mean of the measurements; read-out: DC50, Mean
Sequence of ClpC1-NTD substrate, M. tuberculosis ClpC1P1P2 (P9WPC5 whole entry): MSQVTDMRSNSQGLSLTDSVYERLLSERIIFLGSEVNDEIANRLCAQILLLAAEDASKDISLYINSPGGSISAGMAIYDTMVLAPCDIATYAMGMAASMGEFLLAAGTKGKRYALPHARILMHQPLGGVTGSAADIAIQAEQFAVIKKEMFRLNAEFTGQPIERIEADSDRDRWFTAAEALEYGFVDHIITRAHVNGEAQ
Sequence of ClpC1-NTD substrate, M. tuberculosis ClpC1P1P2 (P9WPC9 whole entry): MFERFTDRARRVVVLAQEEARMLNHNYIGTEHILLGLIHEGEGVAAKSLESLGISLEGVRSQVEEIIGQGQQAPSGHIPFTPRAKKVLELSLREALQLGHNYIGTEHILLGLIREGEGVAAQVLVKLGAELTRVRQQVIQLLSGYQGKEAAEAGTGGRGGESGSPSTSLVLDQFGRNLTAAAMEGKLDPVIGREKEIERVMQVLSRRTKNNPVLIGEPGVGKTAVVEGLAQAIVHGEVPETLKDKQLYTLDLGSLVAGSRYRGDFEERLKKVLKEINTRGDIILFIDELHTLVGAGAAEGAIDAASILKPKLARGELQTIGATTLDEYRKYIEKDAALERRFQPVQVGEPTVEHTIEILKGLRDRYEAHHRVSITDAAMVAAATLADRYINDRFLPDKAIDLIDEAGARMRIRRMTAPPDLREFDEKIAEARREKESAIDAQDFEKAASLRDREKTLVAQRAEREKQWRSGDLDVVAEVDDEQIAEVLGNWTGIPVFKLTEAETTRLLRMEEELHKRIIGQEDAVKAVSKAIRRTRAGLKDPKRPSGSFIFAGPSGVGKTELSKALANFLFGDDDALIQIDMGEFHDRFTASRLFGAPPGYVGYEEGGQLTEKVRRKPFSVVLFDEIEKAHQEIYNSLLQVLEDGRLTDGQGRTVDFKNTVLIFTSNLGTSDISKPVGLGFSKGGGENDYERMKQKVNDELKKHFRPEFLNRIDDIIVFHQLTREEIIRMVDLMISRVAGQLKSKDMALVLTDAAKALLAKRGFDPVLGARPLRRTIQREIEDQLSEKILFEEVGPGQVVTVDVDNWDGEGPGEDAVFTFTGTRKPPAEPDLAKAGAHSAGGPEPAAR
Sequence of ClpC1-NTD substrate, M. tuberculosis ClpC1P1P2 (P9WPC3 whole entry, further chain): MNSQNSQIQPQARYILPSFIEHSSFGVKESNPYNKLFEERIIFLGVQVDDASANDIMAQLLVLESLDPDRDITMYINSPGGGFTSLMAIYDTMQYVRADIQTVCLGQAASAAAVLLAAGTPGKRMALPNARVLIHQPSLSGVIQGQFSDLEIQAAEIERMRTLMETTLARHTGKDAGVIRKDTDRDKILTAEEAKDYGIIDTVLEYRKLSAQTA

[2] = assay type: in vitro ADME, Rat
Outline: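 Read-out: parent loss by HPLC-MS/MS, first-order fit, half-life scaled to %Qh (well-stirred liver model). Conditions: 1 µmol/l cpd, 0.5 mg/ml microsomes, 100 mM Tris-HCl pH 7.5, 6.5 mM MgCl2, 1 mM NADPH, 37 °C; acetonitrile stop at multiple times.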

in vivo = assay type: in vivo, BALB/cAnNCrl mice
Description: The in-life experimental procedures were conducted in strict compliance with German and European animal welfare legislation in an AAALAC-accredited facility. Male BALB/cAnNCrl mice (Charles River Laboratories Research Models and Services, 97633 Sulzfeld, Germany) were used. Animals were 9 weeks old at dosing with a body weight of 21.6–24.3 g. Animals were delivered free of pathogens according to FELASA recommendations with a health certificate provided by the breeder. Upon receipt, the state of health and sex was checked. Animals acclimatized for at least 5 days before the commencement of the in-life phase. During acclimation, animals were group-housed in individually ventilated cages, on birch wood granulate bedding with species-specific enrichment (nesting material, mouse igloo, gnawing wood). During experimental conduct, animals were housed in conventional cages with elevated grid floors. Grid floor was used to avoid contamination with test item material excreted via urine and feces and subsequent reuptake during fur grooming. No bedding and enrichment were provided except a cage divider, which can be used as a shelter. Animals always had unlimited access to food and water and received a pelleted, total pathogen-free maintenance diet and tap drinking water, sterilized by filter.
On the day before dosing, test item(s) were suspended in kleptose (20% in WFI) under continuous stirring (3.0 mg/ml). Following 2 min vortexing and 1 h stirring, the formulation was sonicated at 60 °C for 30 min and stirred at ambient temperature overnight. Before dosing, the formulation was vortexed for 2 min followed by ultraturrax treatment for 2 min.
Male BALB/cAnNCrl mice (n = 3 per test item and administration route) received a bolus dose of the formulated test item(s) (1 mg/kg iv, 30 mg/kg po) at t = 0 h, and whole blood samples were collected subsequently (35 µl at 0.1 (iv) / 0.25 (po), 0.5, 1, 2, 4, 6 h; 600 µl at sacrifice after 24 h). Animals were euthanized by exsanguination in deep isoflurane anesthesia. Whole blood samples were immediately stored on ice at about 4 °C. Plasma was separated by centrifugation at approximately 10,000 × g for 5 m at +4 °C. Centrifugation of each blood sample was started within 10 m after collection. A single aliquot of at least 15 µL of plasma was prepared and immediately stored at −20 ± 5 °C.
Sample proteins were precipitated with ACN (1 + 12, v/v) containing internal standard, and supernatants analyzed by quantitative UPLC-MS/MS: Phenomenex Luna Omega C18, 2.1 × 50 mm, 1.6 µm, 40 °C, gradient between 10% - 90% ACN with 0.1% formic acid. LogD determination: Lipophilicity of the test items, expressed as chromLogD7.5, was assessed by measuring their chromatographic retention times on C18-material. The chromatographic retention versus logD7.5 values of a series of thirteen n-alkan-2-ones (2-butanone – 2-hexadecanone) served as lipophilicity calibration.

[3] = system: non-replicating cells of Mtb H37Rv; assay type: cell-based, Mycobacterium tuberculosis; details: for Supplementary Figure 2 dose-response value, starvation-induced non-replicating H37Rv cells: three replicate columns
[4] = molecular target: His6-tagged ClpC1-NTD substrate, M. smegmatis ClpC1P1P2 (UniProt A0R574+P9WPC9); assay: biochemical; assay type: biochemical; details: for % Response / ClpC1-NTD peak area: Figure 4a source data, well replicates
Sequence of His6-tagged ClpC1-NTD substrate, M. smegmatis ClpC1P1P2 (P9WPC9 1-156, looked up, natural form): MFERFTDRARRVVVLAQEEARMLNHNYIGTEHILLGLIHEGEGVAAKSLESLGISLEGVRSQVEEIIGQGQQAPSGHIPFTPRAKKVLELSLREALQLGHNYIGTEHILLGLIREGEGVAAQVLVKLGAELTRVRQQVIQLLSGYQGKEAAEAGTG
Sequence of His6-tagged ClpC1-NTD substrate, M. smegmatis ClpC1P1P2 (A0R574 whole entry): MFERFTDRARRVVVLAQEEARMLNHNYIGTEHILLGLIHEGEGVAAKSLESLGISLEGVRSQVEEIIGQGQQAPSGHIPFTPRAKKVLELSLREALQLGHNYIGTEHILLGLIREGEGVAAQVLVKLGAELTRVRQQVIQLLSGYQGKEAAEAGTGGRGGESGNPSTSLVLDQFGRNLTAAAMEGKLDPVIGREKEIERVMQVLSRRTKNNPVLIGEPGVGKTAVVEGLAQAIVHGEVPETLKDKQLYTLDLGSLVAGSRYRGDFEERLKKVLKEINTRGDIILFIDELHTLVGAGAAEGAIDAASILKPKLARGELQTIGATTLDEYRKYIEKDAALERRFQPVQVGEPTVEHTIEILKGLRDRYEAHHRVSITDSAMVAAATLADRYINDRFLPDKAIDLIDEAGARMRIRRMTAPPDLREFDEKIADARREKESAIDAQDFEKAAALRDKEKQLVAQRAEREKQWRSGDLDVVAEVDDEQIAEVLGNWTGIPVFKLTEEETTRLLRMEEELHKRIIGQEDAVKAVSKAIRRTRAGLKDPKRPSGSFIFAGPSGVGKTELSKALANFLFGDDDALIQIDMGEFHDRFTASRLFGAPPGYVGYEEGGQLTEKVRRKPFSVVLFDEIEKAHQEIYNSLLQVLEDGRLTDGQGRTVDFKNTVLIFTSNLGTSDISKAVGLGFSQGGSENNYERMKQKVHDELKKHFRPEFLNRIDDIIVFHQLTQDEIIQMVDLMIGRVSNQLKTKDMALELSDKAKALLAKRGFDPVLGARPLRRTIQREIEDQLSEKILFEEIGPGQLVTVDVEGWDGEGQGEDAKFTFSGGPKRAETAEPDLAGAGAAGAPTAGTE

Mycobacterium avium = assay: microbe, parasite or virus in culture; assay type: cell-based
[5] = system: Mycobacterium intracellulare; assay: microbe, parasite or virus in culture; assay type: cell-based
Mtb ATCC 35825 = assay: microbe, parasite or virus in culture; assay type: cell-based
Mtb # 8673 = assay: microbe, parasite or virus in culture; assay type: cell-based
[6] = oral gavage 30 mg/kg, mice, Mean, BLOQ <1.00 nmol/L
[7] = Experiment 2, three replicate columns
[8] = single well replicates, listed as 8 (UdSBAI-0545)

For `COC(c1ccccc1)C1NC(=O)C(C)NC(=O)C(CC(C)CO)N(C)C(=O)C(Cc2cn(Cc3cn(CCOCCOCCOCCOCCn4cc(Cn5cc(CC6NC(=O)C(C(C)C)NC(=O)C(CC(C)C)N(C)C(=O)C(C(C)C)NC(=O)C(C(OC)c7ccccc7)NC(=O)C(C)NC(=O)C(CC(C)CO)N(C)C6=O)c6ccccc65)nn4)nn3)c3ccccc23)NC(=O)C(C(C)C)NC(=O)C(CC(C)C)N(C)C(=O)C(C(C)C)NC1=O` (stereo not shown) [Compound 8], the “colony growth after replating (MBC assay)” value (Mtb H37Rv; Mtb H37Rv, result in words) was “did not form any colonies at concentrations at or above the MIC value”, the MBC (Mtb H37Rv; read-out: MBC (from Set 3) Mtb H37Rv) was 0.22 µg/mL and 0.1 µM and the MBC (Mtb H37Rv; individual example, read-out: MBC Mtb H37Rv) was 0.1 µM and 0.2 µg/mL. The DC50 [1] was 8.3 µM, the “Microsomal Stability Rat QH” value ([2]; Rat) was 43% and 48.3% and 40.9% and the “Microsomal Stability Rat” value ([2]; clearance in microsomes) was 40 %Qh. For the same molecule, the “Plasma concentration 0.5 h” value (in vivo; [6]) was 19.4 nM, the “Plasma concentration 1 h” value (in vivo; [6]) was 18.1 nM and the “Plasma concentration 2 h” value (in vivo; [6]) was 26.0 nM. The “Plasma concentration 4 h” value (in vivo; [6]) was 31.8 nM, the “Plasma concentration 6 h” value (in vivo; [6]) was 32.5 nM and the “Plasma concentration 24 h” value (in vivo; [6]) was 96.7 nM. The “Plasma concentration […]” value (in vivo; [6]) was 25.7 nM, the “Plasma concentration 24 h” value (in vivo; oral gavage, individual animals 1-3, BLOQ <1.00 nmol/L, listed as 8 (UdSBI-0545)) was 101 nM and 92.4 nM and the Cmax/Dose (in vivo; oral gavage, mice, Mean) was 10.4 nM/nmol/kg. For the same molecule, the tmax (in vivo; oral gavage, mice, Mean) was 24.0 h, the AUC0-t/Dose (in vivo; oral gavage, mice, Mean (compound 6: maximum potential value with 1 nM for each time point)) was 165 h*nM/nmol/kg and the “Supplementary Figure 2 dose-response value, starvation-induced non-replicating H37Rv cells” value ([3]; Conc. 0.0488281 µM) was 101.903 and 93.5529 and 95.5846. The “Supplementary Figure 2 dose-response value, starvation-induced non-replicating H37Rv cells” value ([3]; Conc. 0.195312 µM) was 93.6246 and 84.7332 and 86.7409, the “Supplementary Figure 2 dose-response value, starvation-induced non-replicating H37Rv cells” value ([3]; Conc. 0.390625 µM) was 90.2545 and 83.1636 and 86.2868 and the “Supplementary Figure 2 dose-response value, starvation-induced non-replicating H37Rv cells” value ([3]; Conc. 0.78125 µM) was 91.9834 and 86.6134 and 81.2993. For the same molecule, the “Supplementary Figure 2 dose-response value, starvation-induced non-replicating H37Rv cells” value ([3]; Conc. 1.5625 µM) was 90.366 and 86 and 85.5618, the “Supplementary Figure 2 dose-response value, starvation-induced non-replicating H37Rv cells” value ([3]; Conc. 3.125 µM) was 93.9114 and 69.2927 and 87.5137 and the “Supplementary Figure 2 dose-response value, starvation-induced non-replicating H37Rv cells” value ([3]; Conc. 6.25 µM) was 87.458 and 76.4871 and 82.7732. For the same molecule, the “Supplementary Figure 2 dose-response value, starvation-induced non-replicating H37Rv cells” value ([3]; Conc. 25 µM) was 86.1354 and 89.2267 and 87.4022, the “Supplementary Figure 2 dose-response value, starvation-induced non-replicating H37Rv cells” value ([3]; Conc. 50 µM) was 91.1707 and 85.8088 and 84.3747 and the “Supplementary Figure 2 dose-response value, starvation-induced non-replicating H37Rv cells” value ([3]; Conc. 100 µM) was 92.3658 and 81.0443 and 90.6608. The “inhibitory activity on non-growing Mtb H37Rv” value ([3]; starvation for three weeks, result in words) was “lost their inhibitory activity”, the DC50 ([4]; Msm, Measurement 1-6, read-out: DC50, single measurements) was 9 µM and 8.5 µM and 6 µM and 8.1 µM and 8.2 µM and the DC50 ([4]; cell-free degradation of ClpC1-NTD, 90 min, read-out: DC50 M.smegmatis ClpC1P1P2 Mean) was 8 µM. The “% Response” value ([4]; conc. 0.4 µM) was 120.356% and 117.751% and 102.838% and 93.7015% and 104.532% and 103.754% and 118.347% and 117.353% and 124.609%, the ClpC1-NTD peak area ([4]; conc. 0.4 µM) was 613438 and 713203 and 1462174 and 1713249 and 1751036 and 1183458 and 1105910 and 1047700 and 547599 and the “% Response” value ([4]; conc. 33.3 µM) was 25.9293% and 29.5058% and 21.1338% and 16.911% and 37.0492% and 22.8094% and 15.8145% and 16.4069% and 19.2475%. The ClpC1-NTD peak area ([4]; conc. 33.3 µM) was 245614 and 155160 and 213594 and 218458 and 306322 and 219308 and 255600 and 176271 and 124945, the “% Response” value ([4]; conc. 100.0 µM) was 31.4886% and 23.4001% and 28.8941% and 17.4698% and 14.335% and 19.5877% and 11.6161% and 9.907% and 14.2139% and the ClpC1-NTD peak area ([4]; conc. 100.0 µM) was 99143.4 and 153042 and 198962 and 150433 and 187091 and 243688 and 174896 and 223232 and 140724. The MIC (Mycobacterium avium; Experiment 1, listed as 8 (UdSBI-0545), read-out: MIC Mycobacterium avium) was over 50 µM, the “MIC (µg/ml) Mycobacterium avium” value (Mycobacterium avium; [7]) was over 108.53 µg/mL and the MIC (Mycobacterium avium; Experiment 2, three replicate columns, read-out: MIC (µM) Mycobacterium avium) was over 50 µM. The MIC (Mycobacterium avium; Mycobacterium avium, Experiment 1, read-out: MIC Mycobacterium avium) was over 109 µg/mL, the MIC (Mycobacterium avium; Mycobacterium avium, Experiment 2, three replicate columns, read-out: MIC (µM) Mycobacterium avium) was over 50 µM and the MIC (Mycobacterium avium; Mycobacterium avium, Experiment 2, three replicate columns, read-out: MIC (µg/ml) Mycobacterium avium) was over 109 µg/mL. The MIC (Mycobacterium avium; Mycobacterium avium, mean ± SD, read-out: MIC Mycobacterium avium) was over 50 µM, the MIC ([5]; Experiment 1, listed as 8 (UdSBI-0545), read-out: MIC Mycobacterium intracellulare) was over 50 µM and the “MIC (µg/ml) Mycobacterium intracellulare” value [5, 7] was over 108.53 µg/mL. For the same molecule, the MIC ([5]; Experiment 2, three replicate columns, read-out: MIC (µM) Mycobacterium intracellulare) was over 50 µM, the MIC ([5]; Mycobacterium intracellulare, Experiment 1, read-out: MIC Mycobacterium intracellulare) was over 109 µg/mL and the MIC ([5]; Mycobacterium intracellulare, Experiment 2, three replicate columns, read-out: MIC (µM) Mycobacterium intracellulare) was over 50 µM. The MIC ([5]; Mycobacterium intracellulare, Experiment 2, three replicate columns, read-out: MIC (µg/ml) Mycobacterium intracellulare) was over 109 µg/mL, the MIC ([5]; Mycobacterium intracellulare, mean ± SD, read-out: MIC Mycobacterium intracellulare) was over 50 µM and the MIC (Mtb ATCC 35825; Mycobacterium tuberculosis, ATCC35825, mean, n = 2 well replicates) was < 0.1 µM and < 0.2 µg/mL. The MIC (Mtb ATCC 35825; Mycobacterium tuberculosis, ATCC35825, single well replicates) was < 0.21 µg/mL and < 0.1 µM, the MIC (Mtb ATCC 35825; [8]) was under 0.1 µM and the “MIC Mtb ATCC 35825” value (Mtb ATCC 35825; [8]) was under 0.21 µg/mL. The MIC (Mtb # 8673; Mycobacterium tuberculosis, mean, n = 2 well replicates) was < 0.1 µM and < 0.2 µg/mL, the MIC (Mtb # 8673; Mycobacterium tuberculosis, single well replicates) was < 0.1 µM and < 0.21 µg/mL and the MIC (Mtb # 8673; [8]) was under 0.1 µM. For the same molecule, the “MIC Mtb # 8673” value (Mtb # 8673; [8]) was under 0.21 µg/mL.
